Each molecule was assayed against T1, BTK (Homo sapiens, UniProt Q06187) (assay: BTK degradation activity test in Mino cells (Westernblot or Elisa)). Conditions: 24-72 h incubation.
T1 construct: endogenous in cells; host or cells: Mino cells
Format: cell-based
Description: The Mino cell line cells are 0.5˜1 million/well in 6-well plates. The compounds are diluted to different concentrations, added to the plate, and after 24-72 h of incubation, the cells are collected. After the cells were lysed, the total protein concentration in each well was determined with a BCA kit. The amount of BTK is determined using the Westernblot or Elisa method.

T1 sequence (Q06187 whole entry): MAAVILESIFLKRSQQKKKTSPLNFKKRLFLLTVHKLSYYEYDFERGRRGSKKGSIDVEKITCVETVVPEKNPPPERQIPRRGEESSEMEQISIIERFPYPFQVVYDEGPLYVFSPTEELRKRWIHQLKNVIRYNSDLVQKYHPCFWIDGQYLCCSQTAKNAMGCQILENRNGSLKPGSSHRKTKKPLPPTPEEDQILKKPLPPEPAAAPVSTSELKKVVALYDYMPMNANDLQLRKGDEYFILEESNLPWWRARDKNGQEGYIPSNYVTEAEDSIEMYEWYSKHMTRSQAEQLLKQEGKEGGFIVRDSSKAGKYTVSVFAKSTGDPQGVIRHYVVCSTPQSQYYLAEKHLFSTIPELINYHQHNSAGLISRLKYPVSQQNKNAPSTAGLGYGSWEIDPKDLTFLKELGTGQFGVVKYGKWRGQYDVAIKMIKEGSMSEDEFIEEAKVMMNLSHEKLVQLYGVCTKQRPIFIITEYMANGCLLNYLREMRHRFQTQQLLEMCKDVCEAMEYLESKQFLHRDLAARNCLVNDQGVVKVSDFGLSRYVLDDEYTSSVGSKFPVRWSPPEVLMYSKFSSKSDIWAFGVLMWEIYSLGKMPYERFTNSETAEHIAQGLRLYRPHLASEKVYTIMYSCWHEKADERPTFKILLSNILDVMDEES

| DC50 [nM] | SMILES |
| --- | --- |
| < 10 | CC(OC(=O)C(C)(C)C)N1C(=O)CCC(N2C(=O)c3ccc(N4CCC(CN5CCN(c6ccc(Nc7nc(N8CCCCC8)nnc7C(N)=O)cc6F)CC5)C4)cc3C2=O)C1=O (stereo not drawn) [Compound 071, 1-(3-(5-(3-((4-(4-((6-carbamoyl-3-(piperidin-1-yl)-1,2,4-triazin-5-yl)amino)-2-fluorophenyl)piperazin-1-yl)methyl)pyrrolidin-1-yl)-1,3-dioxoisoindolin-2-yl)-2,6-dioxopiperidin-1-yl) ethyl pivalate] |
| < 10 | CC(=O)N[C@@H]1CCCN(c2nnc(C(N)=O)c(Nc3ccc(N4CCN(CC5CCN(c6ccc(C(=O)NC7CCC(=O)NC7=O)c(F)c6)CC5)CC4)c(F)c3)n2)C1 (stereo partly drawn) [Compound 093, 3-((R)-3-acetamidopiperidin-1-yl)-5-((4-(4-((1-(4-((2,6-dioxopiperidin-3-yl)carbamoyl)-3-fluorophenyl)piperidin-4-yl)methyl)piperazin-1-yl)-3-fluorophenyl)amino)-1,2,4-triazine-6-carboxamide] |
| < 10 | CC(=O)N[C@@H]1CCCN(c2nnc(C(N)=O)c(Nc3ccc(N4CCN(CC5CCN(c6ccc(NC7CCC(=O)NC7=O)c(F)c6)CC5)CC4)c(F)c3)n2)C1 (stereo partly drawn) [Compound 097, 3-((R)-3-acetamidopiperidin-1-yl)-5-((4-(4-((1-(4-((2,6-dioxopiperidin-3-yl)amino)-3-fluorophenyl)piperidin-4-yl)methyl)piperazin-1-yl)-3-fluorophenyl)amino)-1,2,4-triazine-6-carboxamide] |
| < 10 | CC(C)[C@H](N)C(=O)OCN1C(=O)CCC(N2C(=O)c3ccc(N4CCC(CN5CCC(c6ccc(Nc7nc(N8CCCCC8)nnc7C(N)=O)cc6)CC5)C4)cc3C2=O)C1=O (stereo partly drawn) [Compound 073, (3-(5-(3-((4-(4-((6-carbamoyl-3-(piperidin-1-yl)-1,2,4-triazin-5-yl)amino)phenyl)piperidin-1-yl)methyl)pyrrolidin-1-yl)-1,3-dioxoisoindolin-2-yl)-2,6-dioxopiperidin-1-yl) methyl L-valinate] |
| < 10 | CC(=O)N[C@@H]1CCCN(c2nnc(C(N)=O)c(Nc3ccc(N4CCN(CC5CCN(c6ncc(-c7ccc(=O)[nH]n7)cc6C(F)(F)F)CC5)CC4)c(F)c3)n2)C1 [Compound 094, (R)-3-(3-acetamidopiperidin-1-yl)-5-((3-fluoro-4-(4-((1-(5-(6-oxo-1,6-dihydropyridazin-3-yl)-3-(trifluoromethyl)pyridin-2-yl)piperidin-4-yl)methyl)piperazin-1-yl)phenyl)amino)-1,2,4-triazine-6-carboxamide] |
| < 10 | NC(=O)c1nnc(N2CCOCC2)nc1Nc1ccc(N2CCN(CC3CCN(c4ccc(NC5CCC(=O)NC5=O)nc4)CC3)CC2)c(F)c1 (stereo not drawn) [Compound 104, 5-((4-(4-((1-(6-((2,6-dioxopiperidin-3-yl)amino)pyridin-3-yl)piperidin-4-yl)methyl)piperazin-1-yl)-3-fluorophenyl)amino)-3-morpholino-1,2,4-triazine-6-carboxamide] |
| < 10 | NC(=O)c1nnc(N2CCOCC2)nc1Nc1ccc(N2CCN(CC3CCN(c4ccc(-c5ccc(=O)[nH]n5)cc4C(F)(F)F)CC3)CC2)c(F)c1 [Compound 103, 5-((3-fluoro-4-(4-((1-(4-(6-oxo-1,6-dihydropyridazin-3-yl)-2-(trifluoromethyl)phenyl)piperidin-4-yl)methyl)piperazin-1-yl)phenyl)amino)-3-morpholino-1,2,4-triazine-6-carboxamide] |
| < 10 | CN1CCN(c2nnc(C(N)=O)c(Nc3ccc(C4CCN(CC5CCN(c6ccc7c(c6)C(=O)N(C6CCC(=O)N(COC(=O)C(C)(C)C)C6=O)C7=O)C5)CC4)cc3)n2)CC1 (stereo not drawn) [Compound 063, (3-(5-(3-((4-(4-((6-carbamoyl-3-(4-methylpiperazin-1-yl)-1,2,4-triazin-5-yl)amino)phenyl)piperidin-1-yl)methyl)pyrrolidin-1-yl)-1,3-dioxoisoindolin-2-yl)-2,6-dioxopiperidin-1-yl) methyl pivalate] |
| < 10 | CC(C)[C@H](N)C(=O)OCN1C(=O)CCC(N2C(=O)c3ccc(N4CCC(CN5CCN(c6ccc(Nc7nc(N8CCCCC8)nnc7C(N)=O)cc6F)CC5)C4)cc3C2=O)C1=O (stereo partly drawn) [Compound 074, (3-(5-(3-((4-(4-((6-carbamoyl-3-(piperidin-1-yl)-1,2,4-triazin-5-yl)amino)-2-fluorophenyl)piperazin-1-yl)methyl)pyrrolidin-1-yl)-1,3-dioxoisoindolin-2-yl)-2,6-dioxopiperidin-1-yl) methyl L-valinate] |
| < 10 | NC(=O)c1nnc(N2CCCCC2)nc1Nc1ccc(N2CCN(C(=O)C3CN(c4ccc5c(c4)C(=O)N(C4CCC(=O)NC4=O)C5=O)C3)CC2)cc1 (stereo not drawn) [Compound 061, 5-((4-(4-(1-(2-(2,6-dioxopiperidin-3-yl)-1,3-dioxoisoindolin-5-yl)azetidine-3-carbonyl)piperazin-1-yl)phenyl)amino)-3-(piperidin-1-yl)-1,2,4-triazine-6-carboxamide] |

Second part, the molecule before the results:

| SMILES | DC50 [nM] |
| --- | --- |
| NC(=O)c1nnc(N2CCCCC2)nc1Nc1ccc(C2CCN(CC3CCN(c4ccc5c(c4)CN(C4CCC(=O)NC4=O)C5=O)C3)CC2)cc1 (stereo not drawn) [Compound 009, 5-((4-(1-((1-(2-(2,6-dioxopiperidin-3-yl)-1-oxoisoindolin-5-yl)pyrrolidin-3-yl)methyl)piperidin-4-yl)phenyl)amino)-3-(piperidin-1-yl)-1,2,4-triazine-6-carboxamide] | < 10 |
| COc1nc(C(N)=O)c(Nc2ccc(C3CCN(CC4CCN(c5ccc6c(c5)C(=O)N(C5CCC(=O)NC5=O)C6=O)C4)CC3)cc2)nc1N1CCCCC1 (stereo not drawn) [Compound 043, 3-((4-(1-((1-(2-(2,6-dioxopiperidin-3-yl)-1,3-dioxoisoindolin-5-yl)pyrrolidin-3-yl)methyl)piperidin-4-yl)phenyl)amino)-6-methoxy-5-(piperidin-1-yl) pyrazine-2-carboxamide] | < 10 |
| NC(=O)c1nnc(N2CCC[C@@H](N)C2)nc1Nc1ccc(C2CCN(CC3CCN(c4ccc5c(c4)C(=O)N(C4CCC(=O)NC4=O)C5=O)C3)CC2)cc1 (stereo partly drawn) [Compound 029, 3-((R)-3-aminopiperidin-1-yl)-5-((4-(1-((1-(2-(2,6-dioxopiperidin-3-yl)-1,3-dioxoisoindolin-5-yl)pyrrolidin-3-yl)methyl)piperidin-4-yl)phenyl)amino)-1,2,4-triazine-6-carboxamide] | < 10 |
| NC(=O)c1nnc(-c2nccs2)nc1Nc1ccc(C2CCN(CC3CCN(c4ccc5c(c4)C(=O)N(C4CCC(=O)NC4=O)C5=O)C3)CC2)cc1 (stereo not drawn) [Compound 024, 5-((4-(1-((1-(2-(2,6-dioxopiperidin-3-yl)-1,3-dioxoisoindolin-5-yl)pyrrolidin-3-yl)methyl)piperidin-4-yl)phenyl)amino)-3-(thiazol-2-yl)-1,2,4-triazine-6-carboxamide] | < 10 |
| NC(=O)c1nnc(N2CCCCC2)nc1Nc1ccc(N2CCC(C(=O)N3CCN(c4ccc5c(c4)C(=O)N(C4CCC(=O)NC4=O)C5=O)CC3)CC2)cc1 (stereo not drawn) [Compound 060, 5-((4-(4-(4-(2-(2,6-dioxopiperidin-3-yl)-1,3-dioxoisoindolin-5-yl)piperazine-1-carbonyl)piperidin-1-yl)phenyl)amino)-3-(piperidin-1-yl)-1,2,4-triazine-6-carboxamide] | < 10 |
| CN1CCN(c2nnc(C(N)=O)c(Nc3ccc(N4CCC(CN5CCN(c6ccc(N7CCC(=O)NC7=O)cc6)CC5)CC4)nc3)n2)CC1 [Compound 047, 5-((6-(4-((4-(4-(2,4-dioxotetrahydropyrimidin-1(2H)-yl)phenyl)piperazin-1-yl)methyl)piperidin-1-yl)pyridin-3-yl)amino)-3-(4-methylpiperazin-1-yl)-1,2,4-triazine-6-carboxamide] | < 10 |
| CN1CCN(c2nnc(C(N)=O)c(Nc3ccc(N4CCC(CN5CCN(c6ccc(N7CCC(=O)NC7=O)cc6)CC5)CC4)c(F)c3)n2)CC1 [Compound 054, 5-((4-(4-((4-(4-(2,4-dioxotetrahydropyrimidin-1(2H)-yl)phenyl)piperazin-1-yl)methyl)piperidin-1-yl)-3-fluorophenyl)amino)-3-(4-methylpiperazin-1-yl)-1,2,4-triazine-6-carboxamide] | < 10 |
| NC(=O)c1nnc(Nc2ccccn2)nc1Nc1ccc(C2CCN(CC3CCN(c4ccc5c(c4)C(=O)N(C4CCC(=O)NC4=O)C5=O)C3)CC2)cc1 (stereo not drawn) [Compound 021, 5-((4-(1-((1-(2-(2,6-dioxopiperidin-3-yl)-1,3-dioxoisoindolin-5-yl)pyrrolidin-3-yl)methyl)piperidin-4-yl)phenyl)amino)-3-(pyridin-2-ylamino)-1,2,4-triazine-6-carboxamide] | < 10 |
| NC(=O)c1nnc(N2CCCCC2)nc1Nc1ccc(N2CC(CN3CCN(c4ccc5c(c4)C(=O)N(C4CCC(=O)NC4=O)C5=O)CC3)C2)cc1 (stereo not drawn) [Compound 049, 5-((4-(3-((4-(2-(2,6-dioxopiperidin-3-yl)-1,3-dioxoisoindolin-5-yl)piperazin-1-yl)methyl)azetidin-1-yl)phenyl)amino)-3-(piperidin-1-yl)-1,2,4-triazine-6-carboxamide] | < 10 |
| NC(=O)c1cnc(N2CCCCC2)nc1Nc1ccc(C2CCN(CC3CCN(c4ccc5c(c4)C(=O)N(C4CCC(=O)NC4=O)C5=O)C3)CC2)c(F)c1 (stereo not drawn) [Compound 036, 4-((4-(1-((1-(2-(2,6-dioxopiperidin-3-yl)-1,3-dioxoisoindolin-5-yl)pyrrolidin-3-yl)methyl)piperidin-4-yl)-3-fluorophenyl)amino)-2-(piperidin-1-yl) pyrimidine-5-carboxamide] | < 10 |
| NC(=O)c1nnc(N2CCCCC2)nc1Nc1ccc(C2CCN(CC3CN(c4ccc5c(c4)C(=O)N(C4CCC(=O)NC4=O)C5=O)C3)CC2)cc1 (stereo not drawn) [Compound 008, 5-((4-(1-((1-(2-(2,6-dioxopiperidin-3-yl)-1,3-dioxoisoindolin-5-yl)azetidin-3-yl)methyl)piperidin-4-yl)phenyl)amino)-3-(piperidin-1-yl)-1,2,4-triazine-6-carboxamide] | < 10 |

From US20260167620A1, “MULTIFUNCTIONAL COMPOUND CAPABLE OF DEGRADING BTK KINASE, AND COMPOSITION AND USE” (HANGZHOU HEALZEN THERAPEUTICS CO., LTD., priority 2021, published 2026)
